Measured values from patent publication US7323444B2, “Use of kahalalide compounds for the manufacture of a medicament for the treatment of psoriasis” (Pharma Mar, S.A.U., priority 2003, dated 2008).

Key:
psoriasis = test system: psoriasis
Procedure: This phase I Clinical and Pharmacokinetic study was designed to determine the safety of Kahalalide F administered as a weekly infusion over 1 hour in patients with solid tumours. This trial was addressed to any solid tumours and was designed as a classical escalation. The patient was a patient with a psoriasis history since more than 40 years.

[1] = cited from earlier work
solid tumour cell lines = conditions: preclinical studies, in vitro; cited from earlier work

**Q.** What does the source list for `C/C=C1\NC(=O)[C@H](Cc2ccccc2)NC(=O)[C@@H](C(C)C)NC(=O)[C@@H](C(C)CC)NC(=O)[C@H](NC(=O)[C@H](NC(=O)[C@H](CCCN)NC(=O)[C@H]2CCCN2C(=O)[C@H](NC(=O)[C@@H](NC(=O)C(NC(=O)[C@H](NC(=O)CCCC(C)C)C(C)C)[C@@H](C)O)C(C)C)C(C)C)C(C)CC)C(C)OC(=O)[C@H](C(C)C)NC1=O` (stereo partly shown) [kahalalide F]?
**A.** psoriasic symptoms after the first infusion (psoriasis; one patient, severe psoriasis, 650 μg/m^2 weekly iv infusion over 1 hour, after first infusion): quick improvement of the psoriasic symptoms; remission of the cutaneous plaques with the following infusions (psoriasis; same patient, 650 μg/m^2 weekly, total of 7 infusions): nearly complete remission of the cutaneous plaques; psoriasis status after end of treatment (psoriasis; same patient, two months after the last dose): still in a nearly complete remission situation; maximum tolerated dose (MTD) ([1]; female mice, single bolus iv injection): 0.28 mg/kg; acute toxicity on repeated administration ([1]; mice, 280 μg/kg once daily times five): without any apparent evidence of acute toxicity; toxicity of single doses just above the MTDiv ([1]; mice, single iv doses just above MTD, signs of neurotoxicity followed by death): extremely toxic; activity against solid tumour cell lines (solid tumour cell lines): significant activity
